Key:
[1] = target: T1, Prostaglandin G/H synthase 1 (Ovis aries, UniProt P05979); test: Competitive inhibition of ovine COX1 by enzyme immunoassay
T1 sequence (P05979 whole entry): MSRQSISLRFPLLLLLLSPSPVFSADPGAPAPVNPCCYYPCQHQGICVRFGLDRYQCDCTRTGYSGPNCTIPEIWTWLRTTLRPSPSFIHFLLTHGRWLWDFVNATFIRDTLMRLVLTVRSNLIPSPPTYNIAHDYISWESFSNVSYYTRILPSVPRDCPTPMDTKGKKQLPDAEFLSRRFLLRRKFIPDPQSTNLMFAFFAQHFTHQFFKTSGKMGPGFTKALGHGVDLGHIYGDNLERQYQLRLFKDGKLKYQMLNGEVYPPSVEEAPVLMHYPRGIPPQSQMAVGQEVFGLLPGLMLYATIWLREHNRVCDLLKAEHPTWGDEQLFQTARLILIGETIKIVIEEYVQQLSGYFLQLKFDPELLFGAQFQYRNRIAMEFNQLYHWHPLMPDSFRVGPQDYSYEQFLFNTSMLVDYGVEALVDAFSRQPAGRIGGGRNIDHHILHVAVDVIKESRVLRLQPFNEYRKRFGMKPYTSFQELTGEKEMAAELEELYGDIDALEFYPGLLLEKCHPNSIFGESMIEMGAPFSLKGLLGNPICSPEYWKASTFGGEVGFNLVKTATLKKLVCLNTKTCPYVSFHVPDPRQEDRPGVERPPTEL

[2] = target: T2, Prostaglandin G/H synthase 2 (Homo sapiens, UniProt P35354); test: Competitive inhibition of human recombinant COX2 by enzyme immunoassay
T2 sequence (P35354 whole entry): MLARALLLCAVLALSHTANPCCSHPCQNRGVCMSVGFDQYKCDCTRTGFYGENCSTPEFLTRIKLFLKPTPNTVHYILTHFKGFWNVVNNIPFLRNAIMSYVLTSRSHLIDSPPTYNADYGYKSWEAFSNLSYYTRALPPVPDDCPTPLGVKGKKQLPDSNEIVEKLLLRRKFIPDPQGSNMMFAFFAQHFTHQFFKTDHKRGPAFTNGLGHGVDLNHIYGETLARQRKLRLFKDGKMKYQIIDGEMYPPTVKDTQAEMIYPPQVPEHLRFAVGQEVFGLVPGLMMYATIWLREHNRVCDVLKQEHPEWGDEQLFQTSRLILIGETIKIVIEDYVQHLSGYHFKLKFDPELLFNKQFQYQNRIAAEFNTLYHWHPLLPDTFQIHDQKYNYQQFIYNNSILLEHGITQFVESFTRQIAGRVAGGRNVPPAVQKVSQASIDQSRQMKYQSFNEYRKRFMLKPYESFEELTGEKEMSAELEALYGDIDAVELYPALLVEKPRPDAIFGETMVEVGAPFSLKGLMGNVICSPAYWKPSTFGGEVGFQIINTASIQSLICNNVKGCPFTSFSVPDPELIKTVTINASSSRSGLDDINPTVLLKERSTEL

Structure (SMILES) | IC50 [1] [µM] | IC50 [2] [µM]
CS(=O)(=O)c1ccc(-n2nnnc2-c2ccc(F)cc2)cc1 | > 100 | 15
CS(=O)(=O)c1ccc(-n2nnnc2-c2ccc(Cl)cc2)cc1 | > 100 | 32
CS(=O)(=O)c1ccc(-n2nnnc2-c2ccc([N+](=O)[O-])cc2)cc1 | > 100 | 69

The next lines start with the values.

IC50 [1] [µM] | IC50 [2] [µM] | Structure (SMILES)
> 100 | > 100 | Cc1ccc(-c2nnnn2-c2ccc(S(N)(=O)=O)cc2)cc1
> 100 | 62 | NS(=O)(=O)c1ccc(-n2nnnc2-c2ccc(Cl)cc2)cc1
